In US20210393655A1, “Vesicular Formulations for Use in the Treatment of Pain or Reduced Mobility of a Joint” (Sequessome Technology Holdings Limited, priority 2012, published 2021):

Assays:
Assay type in all cases: in vivo, human
[1] = test system: patients with osteoarthritis of the knee; experiment: Clinical trial CL-033-III-03: WOMAC pain subscale
Protocol: (§1) Six clinical trials were conducted with Formulation X on patients with osteoarthritis of the knee. One efficacy measure was the change from baseline to the end of the study in patients' perception of joint stiffness and physical function. In studies CL-033-III-03 and CL-033-III-06, joint stiffness was assessed using two single items describing the severity of stiffness, both of which were measured using an 11-point numerical rating (NRS) on the stiffness subscale of the Western Ontario and McMaster Universities (WOMAC) Osteoarthritis Index (version 3.1) instrument. A measure of physical function was performed in all six studies using the WOMAC Osteoarthritis Index (version 3.1), which consisted of 17 single items describing the difficulty in performing daily activities. Each item was rated on a VAS or an 11-point numerical scale.
Pain, joint mobility and physical function outcomes were compared in study CL-033-III-03.

[2] = test system: patients with osteoarthritis of the knee; experiment: Clinical trials in osteoarthritis of the knee: WOMAC physical function subscale
Protocol: as §1, with “One” for “Six clinical trials were conducted with Formulation X on patients with osteoarthritis of the knee. One”

[3] = test system: patients with osteoarthritis of the knee; experiment: Clinical trials in osteoarthritis of the knee: WOMAC stiffness subscale; settings: study CL-033-III-03; end of 3 month treatment
Protocol: as §1

[4] = oral celecoxib 100 mg b.i.d. (n = 233), 3 months, CL-033-III-03
[5] = study CL-033-III-03, end of 3 month treatment

## Cc1ccc(-c2cc(C(F)(F)F)nn2-c2ccc(S(N)(=O)=O)cc2)cc1 [celecoxib]
[1]; [4]
  Effect size versus oral placebo (Mann-Whitney estimator, MW), WOMAC pain subscale score: MW = 0.5873
[1]; [5]
  Reduction in joint pain (WOMAC pain): 40.4%
[2]; [4]
  Effect size versus oral placebo (Mann-Whitney estimator, MW), WOMAC function subscale score: MW = 0.5949
[2]; [5]
  Improvement in physical function (WOMAC function): 38.2%
[3]
  Reduction in stiffness (WOMAC stiffness): 37.9%
